In US8183256B2, “Remedy or preventive for integration dysfunction syndrome” (Toray Industries, Inc., priority 2008, dated 2012):

Experiments:
[1] = test system: Prepulse Inhibition (PPI); assay: Startle response in rat prepulse inhibition (PPI) model; type: in vivo; conditions: SD male rats
Excerpt: Further, the fact that there is no risk, in the above-described compound or a pharmaceutically acceptable acid addition salt thereof, of causing impaired information processing related to cognitive deficiencies which is a symptom of schizophrenia can be confirmed by investigating the effect of the compound on the phenomenon wherein the startle response to a startle stimulus (pulse) in an animal is inhibited by presentation of a weak stimulus (prepulse) prior to presentation of a startle stimulus (pulse) (Prepulse Inhibition, PPI) according to the method described in Bio. Psychiatry., 57, 1550, 2005. In this method, inhibition of PPI indicates abnormality in information processing, and is known to reflect cognitive deficiencies, which is a symptom of schizophrenia, and the like.
In the experiments, 8 SD male rats of 9 to 10 weeks old were used per each group. The measurement was carried out using an apparatus for measuring startle responses of small animals (San Diego Instruments). […]

[2] = test system: PCP-induced hyperlocomotion; assay: Mouse PCP-induced hyperlocomotion; type: in vivo; conditions: ddy male mice, PCP 10 mg/kg s.c.

c1ccc(C2(N3CCCCC3)CCCCC2)cc1 [Phencyclidine]
effect on PPI (% Prepulse Inhibition) ([1]; positive control at 4 mg/kg, p<0.05 against the vehicle-administered group): statistically significant inhibitory effect on PPI

CN(C(=O)/C=C/c1ccoc1)[C@@H]1CC[C@@]2(O)[C@H]3Cc4ccc(O)c5c4[C@@]2(CCN3CC2CC2)[C@H]1O5.Cl [Compound 1, (−)-17-(Cyclopropylmethyl)-3,14β-Dihydroxy-4,5α-Epoxy-6β-[N-Methyl-Trans-3-(3-Furyl)Acrylamido]Morphinan Hydrochloric Acid Salt]
dose statistically significantly inhibiting PCP-induced hyperlocomotion ([2]; test compound s.c. 1 minute before PCP, locomotor counts, vs vehicle-administered group): ≥ 0.01 mg/kg
effect on PPI (% Prepulse Inhibition) ([1]; 0.03 mg/kg s.c., 30 minutes before stimulation session, 80 dB prepulse, 120 dB pulse): did not inhibit PPI

C=C1CC[C@@]2(O)[C@H]3Cc4ccc(O)c5c4[C@@]2(CCN3CC2CC2)[C@H]1O5 [Nalmefene]
effect on the amount of locomotion (PCP-induced hyperlocomotion) ([2]; test compound at 10 mg/kg s.c.): did not have any effect
